# Assay results reported in the supplement of paper PMC10307832.
# Key:
# Test in all cases: relative viability (nuclei count vs DMSO), 5 days (fraction); higher = more cells survive
# [1] = system: NCI-H441
# Summary of the method: (§1)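 Relative viability divides the nuclei count in treated wells by that in vehicle wells. Lung cancer cell lines were seeded in 1536-well plates, dosed by pin tool the next day, and fixed and stained after 5 days in one step with final 0.05% Triton X-100, 1% formaldehyde and 1 ug/ml Hoechst. Dosing was a single drug or a fixed anchor-drug dose plus five library-drug doses (not always all listed) in √10 steps, and values are medians of duplicate plates imaged at 4×.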
# [2] = system: NCI-H1792
# Summary of the method: as §1
# [3] = system: NCI-H1975
# Summary of the method: as §1
# [4] = system: COR-L 105
# Summary of the method: as §1
# [5] = system: H3255
# Summary of the method: as §1
# [6] = system: NCI-H1355
# Summary of the method: as §1
# [7] = system: ABC-1
# Summary of the method: as §1
# [8] = system: NCI-H2228
# Summary of the method: as §1
# [9] = system: SK-MES-1
# Summary of the method: as §1
# [10] = system: ChaGo-K-1
# Summary of the method: as §1
# [11] = system: EPLC-272H
# Summary of the method: as §1
# [12] = system: NCI-H460
# Summary of the method: as §1
# [13] = system: HCC-827
# Summary of the method: as §1
# [14] = system: NCI-H322M
# Summary of the method: as §1
# [15] = system: EKVX
# Summary of the method: as §1
# [16] = system: NCI-H1993
# Summary of the method: as §1
# [17] = system: CAL-12T
# Summary of the method: as §1
# [18] = system: HCC-366
# Summary of the method: as §1
# [19] = system: NCI-H2087
# Summary of the method: as §1
# [20] = system: NCI-H2085
# Summary of the method: as §1
structure (smiles),measurement,setting,value
Cc1cn(-c2cc(NC(=O)c3ccc(C)c(Nc4nccc(-c5cccnc5)n4)c3)cc(C(F)(F)F)c2)cn1 [Nilotinib] + C[C@@H](Oc1cc(-c2cnn(C3CCNCC3)c2)cnc1N)c1c(Cl)ccc(F)c1Cl [Crizotinib] (partner 1 µM),relative viability,[1]; first compound 0.001 µM,0.728
same,relative viability,[1]; first compound 0.003162 µM,0.825
same,relative viability,[1]; first compound 0.01 µM,0.601
same,relative viability,[1]; first compound 0.1 µM,0.652
same,relative viability,[2]; first compound 0.001 µM,0.967
same,relative viability,[2]; first compound 0.01 µM,1.15
same,relative viability,[2]; first compound 0.1 µM,1.16
same,relative viability,[3]; first compound 0.001 µM,0.811
same,relative viability,[3]; first compound 0.003162 µM,1.11
same,relative viability,[3]; first compound 0.01 µM,1.16
same,relative viability,[3]; first compound 0.03162 µM,0.616
same,relative viability,[3]; first compound 0.1 µM,0.907
same,relative viability,[4]; first compound 0.001 µM,0.821
same,relative viability,[4]; first compound 0.01 µM,0.796
same,relative viability,[4]; first compound 0.03162 µM,0.668
same,relative viability,[4]; first compound 0.1 µM,0.662
same,relative viability,[5]; first compound 0.001 µM,0.773
same,relative viability,[5]; first compound 0.003162 µM,0.99
same,relative viability,[5]; first compound 0.01 µM,1.07
same,relative viability,[5]; first compound 0.03162 µM,0.814
same,relative viability,[5]; first compound 0.1 µM,1.11
same,relative viability,[6]; first compound 0.001 µM,1.05
same,relative viability,[6]; first compound 0.003162 µM,1.15
same,relative viability,[6]; first compound 0.01 µM,1.38
same,relative viability,[6]; first compound 0.03162 µM,0.909
same,relative viability,[6]; first compound 0.1 µM,1.09
same,relative viability,[7]; first compound 0.001 µM,1.16
same,relative viability,[7]; first compound 0.003162 µM,1.03
same,relative viability,[7]; first compound 0.01 µM,1.5
same,relative viability,[7]; first compound 0.03162 µM,0.913
same,relative viability,[7]; first compound 0.1 µM,1.34
same,relative viability,[8]; first compound 0.001 µM,0.53
same,relative viability,[8]; first compound 0.003162 µM,0.418
same,relative viability,[8]; first compound 0.01 µM,0.606
same,relative viability,[8]; first compound 0.03162 µM,0.461
same,relative viability,[8]; first compound 0.1 µM,0.294
same,relative viability,[9]; first compound 0.003162 µM,1.09
same,relative viability,[9]; first compound 0.01 µM,1.06
same,relative viability,[9]; first compound 0.03162 µM,0.994
same,relative viability,[9]; first compound 0.1 µM,0.982
same,relative viability,[10]; first compound 0.001 µM,1.1
same,relative viability,[10]; first compound 0.003162 µM,1.08
same,relative viability,[10]; first compound 0.01 µM,1.27
same,relative viability,[10]; first compound 0.03162 µM,0.674
same,relative viability,[10]; first compound 0.1 µM,1.08
same,relative viability,[11]; first compound 0.001 µM,0.942
same,relative viability,[11]; first compound 0.003162 µM,0.935
same,relative viability,[11]; first compound 0.01 µM,1.01
same,relative viability,[11]; first compound 0.03162 µM,0.831
same,relative viability,[11]; first compound 0.1 µM,0.917
same,relative viability,[12]; first compound 0.001 µM,0.752
same,relative viability,[12]; first compound 0.003162 µM,1.06
same,relative viability,[12]; first compound 0.01 µM,1.56
same,relative viability,[12]; first compound 0.03162 µM,0.245
same,relative viability,[12]; first compound 0.1 µM,0.901
same,relative viability,[13]; first compound 0.001 µM,0.936
same,relative viability,[13]; first compound 0.003162 µM,0.954
same,relative viability,[13]; first compound 0.01 µM,0.893
same,relative viability,[13]; first compound 0.1 µM,0.91
same,relative viability,[14]; first compound 0.001 µM,1.06
same,relative viability,[14]; first compound 0.003162 µM,0.869
same,relative viability,[14]; first compound 0.03162 µM,0.727
same,relative viability,[14]; first compound 0.1 µM,0.984
same,relative viability,[15]; first compound 0.001 µM,0.812
same,relative viability,[15]; first compound 0.003162 µM,1.39
same,relative viability,[15]; first compound 0.01 µM,1.42
same,relative viability,[15]; first compound 0.03162 µM,0.809
same,relative viability,[15]; first compound 0.1 µM,1.13
same,relative viability,[16]; first compound 0.001 µM,0.998
same,relative viability,[16]; first compound 0.003162 µM,0.838
same,relative viability,[16]; first compound 0.01 µM,0.994
same,relative viability,[16]; first compound 0.03162 µM,0.762
same,relative viability,[16]; first compound 0.1 µM,0.887
same,relative viability,[17]; first compound 0.003162 µM,0.519
same,relative viability,[17]; first compound 0.01 µM,0.902
same,relative viability,[17]; first compound 0.03162 µM,0.345
same,relative viability,[17]; first compound 0.1 µM,0.6
same,relative viability,[18]; first compound 0.001 µM,0.484
same,relative viability,[18]; first compound 0.003162 µM,0.627
same,relative viability,[18]; first compound 0.01 µM,1.38
same,relative viability,[18]; first compound 0.03162 µM,0.389
same,relative viability,[18]; first compound 0.1 µM,0.609
same,relative viability,[19]; first compound 0.001 µM,0.626
same,relative viability,[19]; first compound 0.003162 µM,0.806
same,relative viability,[19]; first compound 0.01 µM,0.947
same,relative viability,[19]; first compound 0.03162 µM,0.702
same,relative viability,[19]; first compound 0.1 µM,0.667
same,relative viability,[20]; first compound 0.001 µM,0.982
same,relative viability,[20]; first compound 0.003162 µM,0.895
same,relative viability,[20]; first compound 0.01 µM,0.971
same,relative viability,[20]; first compound 0.03162 µM,0.721
same,relative viability,[20]; first compound 0.1 µM,0.884
